Tests used:
[1] = tested on: dermis white adipose tissue; assay: SD rat skin penetration test: histological analysis (H&E, Masson's trichome staining); format: in vivo, SD rats; conditions: 1%, 500 μL subcutaneous injection
Excerpt: The interscapular region (back of the neck near the ear) of 10-week-old SD rats (280-350 g) with sufficient subcutaneous adipose tissue was shaved and anesthetized. […].
Then, tissues (skin, subcutaneous tissue) of the interscapular region were collected, fixed, and subjected to H&E staining and Masson's trichome staining. Tissue changes were investigated through microscopic observation.

[2] = cited from earlier work
[3] = tested on: 3T3-L1 preadipocytes; assay: Preadipocyte cytotoxicity (cell counting kit-8); format: cell-based; conditions: treated 4 hours
Experimental: 3T3-L1 preadipocytes were inoculated into a 96 well plate at 5×10^3 per well, grown in medium (high glucose DMEM, 10% bovine calf serum, 1% penicillin/streptomycin) for 16 hours. The drug was prepared to contain 0.04% and 0.08%, respectively, and then treated for 4 hours. After adding 10 μl of Dojingo CK04-11 cell counting kit-8 to each well according to the manual, reacting for 2 hours, the absorbance at 450 nm was measured with a spectrophotometer to compare preadipocyte cytotoxicity.

[4] = SD rat skin penetration test: DCA distribution in subcutaneous tissue, skin and plasma; set-up: species or system SD rats; conditions: in vivo, sc
Excerpt: The interscapular region (back of the neck near the ear) of 10-week-old SD rats (280-350 g) with sufficient subcutaneous adipose tissue was shaved and anesthetized.

Structure (SMILES): C[C@H](CCC(=O)O)[C@H]1CC[C@H]2[C@@H]3CC[C@@H]4C[C@H](O)CC[C@]4(C)[C@H]3C[C@H](O)[C@]12C [deoxycholic acid]
- H&E staining: tissue change [1]: severe tissue damage was observed
- Masson's trichome staining: tissue change [1]: hematoma and edema occurred in the tissue
- solubility in water [2]: 0.024%
- preadipocyte cytotoxicity (comparison between materials) ([3]; 0.04%): the same
- survival rate of preadipocytes ([3]; 0.08%, absorbance 450 nm): 24.6%
- amount of DCA in subcutaneous tissue [4]: gradually decreased
